Measured values from PMC9518264, “Design and synthesis of novel quinazolinone-based derivatives as EGFR inhibitors with antitumor activity” (Journal of Enzyme Inhibition and Medicinal Chemistry, 2022).

How the values were obtained:
HL-60(TB) = assay: cells; type: cell-based
HOP-62 = assay: cells; type: cell-based
SW-620 = assay: cells; type: cell-based
M14 = assay: cells; type: cell-based
SK-MEL-28 = assay: cells; type: cell-based
OVCAR-5 = assay: cells; type: cell-based
786-0 = assay: cells; type: cell-based
ACHN = assay: cells; type: cell-based
CAKI-1 = assay: cells; type: cell-based
RXF 393 = assay: cells; type: cell-based
DU-145 = assay: cells; type: cell-based
MDA-MB-231/ATCC = assay: NCI 60 cell line antiproliferative screening (SRB), Breast cancer; type: cell-based
EGFR = EGFR (Homo sapiens, UniProt P00533); assay: In vitro EGFR kinase inhibitory assay (Kinase-Glo Max luminescence kit); type: biochemical
HS 578T cells [1] = assay: Annexin V/PI dual staining apoptosis assay; type: cell-based, human
caspase-3 = assay: Caspase-3 activation (ELISA) in breast HS 578T cancer cell line; type: cell-based, human
Protocol: Apoptosis is triggered by the activation of caspases, particularly caspase-3, which is an […] caspase responsible for apoptosis. Therefore, the induction of apoptosis by compound 6d was examined by the evaluation of caspase-3 activation in breast HS 578T cancer cell line. The effect of erlotinib as well as untreated cell line was used as positive and negative control, respectively. […] . […]
incubated for 15 minutes in the dark at room temperature. FacsCalibur was used to assess cell fluorescence after incubation (BD Biosciences, USA). The results were represented using dot-plot graphs.
1.1.5. Caspase-3 enzyme assay
The level of the apoptotic marker caspase-3 was measured using Invitrogen ELISA Kit Catalog # KHO1091. The procedure of the used kit was performed according to the manufacturer’s instructions. Let all components to reach room temperature before use. Gently combine all liquid reagents prior to use. Add 100 μL of the standard diluent buffer to the zero standard wells. Add 100 μL of standards and controls or diluted samples to the appropriate microtiter wells. Incubate for 2 h at room temperature. Pipette 100 μL of Caspase-3 (Active) detection antibody solution into each well. […] Read the absorbance of each well at 450 nm. Read the plate within 2 h after adding the stop solution. […] Read the concentrations for unknown samples and controls from the standard curve.

HS 578T cells [2] = assay: Cell cycle analysis by DNA flow cytometry (propidium iodide)
Protocol: Flow cytometry was used to analyse the cell cycle using ab139418 propidium iodide flow cytometry kit/BD (Abcam, Cambridge, UK), as directed by the manufacturer guidelines.
The cells were washed twice with ice-cold phosphate buffer saline (PBS) and collected by centrifugation.
(v/v) ethanol, washed with PBS, and re-suspended with 0.1 mg/mL RNase to digest cellular RNA and thus minimize stained RNA in the background. The cells were next stained with PI, a fluorescent molecule that may bind to nucleic acid, at a concentration of 40 mg/mL. In cells, PI attaches to DNA in proportion to its amount. Because the DNA content of cells at different stages of the cell cycle differs, the fluorescence intensity can be used to assess the stage of cell growth. FacsCalibur (BD Biosciences, USA) was used to estimate cell fluorescence, which was then examined using Cell-Quest software (Becton Dickinson).

MDA-MB-468 = assay: NCI 60 cell line antiproliferative screening (SRB), Breast cancer
[3] = 24 h at 2.17 µM, vs untreated control

Chain of EGFR (P00533 669-1210): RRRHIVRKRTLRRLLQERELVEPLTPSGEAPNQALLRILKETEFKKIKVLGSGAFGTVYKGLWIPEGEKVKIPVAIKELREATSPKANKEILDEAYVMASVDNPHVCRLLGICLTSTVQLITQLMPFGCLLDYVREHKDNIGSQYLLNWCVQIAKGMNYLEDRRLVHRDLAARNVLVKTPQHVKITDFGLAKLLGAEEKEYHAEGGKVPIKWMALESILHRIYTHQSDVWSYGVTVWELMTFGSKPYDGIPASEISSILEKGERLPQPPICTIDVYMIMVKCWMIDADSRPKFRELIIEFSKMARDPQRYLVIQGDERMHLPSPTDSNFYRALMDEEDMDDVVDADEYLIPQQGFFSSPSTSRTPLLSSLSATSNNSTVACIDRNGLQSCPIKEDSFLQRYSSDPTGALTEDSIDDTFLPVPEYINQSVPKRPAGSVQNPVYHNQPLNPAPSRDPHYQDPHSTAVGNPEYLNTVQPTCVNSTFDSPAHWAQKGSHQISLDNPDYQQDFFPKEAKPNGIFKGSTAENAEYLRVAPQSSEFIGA

O=C(CSc1nc2ccccc2c(=O)n1-c1ccc(Cl)cc1)NN=Cc1ccc(Oc2ccc(Cl)cc2)cc1 [6d, N'-(4–(4-chlorophenoxy)benzylidene)-2-((3–(4-chlorophenyl)-4-oxo-3,4-dihydroquinazolin-2-yl)thio)acetohydrazide]
TGI (HL-60(TB); HL-60(TB), 5 doses): 37.0 µM | GI50 (HL-60(TB); Homo sapiens, HL-60): 16 µM | inhibition at 10 µM (HL-60(TB); Homo sapiens, HL-60, read-out: growth inhibition % (GI%)): < 15% | CC50 (HL-60(TB); Homo sapiens, HL-60(TB), 5 doses, read-out: LC50 (the source's name)): 85.7 µM | TGI (HOP-62; HOP-62, 5 doses): 4.05 µM | GI50 (HOP-62; Homo sapiens, HOP-62): 1.69 µM | inhibition at 10 µM (HOP-62; Homo sapiens, HOP-62, read-out: growth inhibition % (GI%)): 67.4% | CC50 (HOP-62; Homo sapiens, HOP-62, 5 doses, read-out: LC50 (the source's name)): 9.69 µM | GI50 (SW-620; Homo sapiens, SW-620): 1.81 µM | inhibition at 10 µM (SW-620; Homo sapiens, SW-620, read-out: growth inhibition % (GI%)): 97.4% | CC50 (SW-620; Homo sapiens, SW-620, 5 doses, read-out: LC50 (the source's name)): 42.4 µM | TGI (SW-620; SW-620, 5 doses): 7.84 µM | GI50 (M14; Homo sapiens, M14): 1.58 µM | inhibition at 10 µM (M14; Homo sapiens, M14, read-out: growth inhibition % (GI%)): > 100% | CC50 (M14; Homo sapiens, M14, 5 doses, read-out: LC50 (the source's name)): 7.58 µM | TGI (M14; M14, 5 doses): 3.47 µM | GI50 (SK-MEL-28; Homo sapiens, SK-MEL-28): 1.51 µM | inhibition at 10 µM (SK-MEL-28; Homo sapiens, SK-MEL-28, read-out: growth inhibition % (GI%)): 96.8% | CC50 (SK-MEL-28; Homo sapiens, SK-MEL-28, 5 doses, read-out: LC50 (the source's name)): 6.01 µM | TGI (SK-MEL-28; SK-MEL-28, 5 doses): 3.01 µM | GI50 (OVCAR-5; Homo sapiens, OVCAR-5): 2.27 µM | inhibition at 10 µM (OVCAR-5; Homo sapiens, OVCAR-5, read-out: growth inhibition % (GI%)): 29.4% | CC50 (OVCAR-5; Homo sapiens, OVCAR-5, 5 doses, read-out: LC50 (the source's name)): 32.2 µM | TGI (OVCAR-5; OVCAR-5, 5 doses): 6.44 µM | TGI (786-0; 786-0, 5 doses): 6.41 µM | GI50 (786-0; Homo sapiens, 786-0): 2.51 µM | inhibition at 10 µM (786-0; Homo sapiens, 786-0, read-out: growth inhibition % (GI%)): > 100% | CC50 (786-0; Homo sapiens, 786-0, 5 doses, read-out: LC50 (the source's name)): 26.5 µM | TGI (ACHN; 5 doses): 15.2 µM | GI50 (ACHN; Homo sapiens): 4.36 µM | CC50 (ACHN; Homo sapiens, 5 doses, read-out: LC50 (the source's name)): 39 µM | inhibition at 10 µM (ACHN; Homo sapiens, read-out: growth inhibition % (GI%)): 36.5% | TGI (CAKI-1; CAKI-1, 5 doses): 12.0 µM | GI50 (CAKI-1; Homo sapiens, CAKI-1): 3.06 µM | inhibition at 10 µM (CAKI-1; Homo sapiens, CAKI-1, read-out: growth inhibition % (GI%)): 67% | CC50 (CAKI-1; Homo sapiens, CAKI-1, 5 doses, read-out: LC50 (the source's name)): 35.4 µM | GI50 (RXF 393; Homo sapiens, RXF 393): 1.7 µM | inhibition at 10 µM (RXF 393; Homo sapiens, RXF 393, read-out: growth inhibition % (GI%)): > 100% | CC50 (RXF 393; Homo sapiens, RXF 393, 5 doses, read-out: LC50 (the source's name)): 5.81 µM | TGI (RXF 393; RXF 393, 5 doses): 3.14 µM | TGI (DU-145; DU-145, 5 doses): 20.4 µM | GI50 (DU-145; Homo sapiens, DU-145): 3.52 µM | inhibition at 10 µM (DU-145; Homo sapiens, DU-145, read-out: growth inhibition % (GI%)): 86.9% | CC50 (DU-145; Homo sapiens, DU-145, 5 doses, read-out: LC50 (the source's name)): > 100 µM | GI50 (MDA-MB-231/ATCC; Homo sapiens, MDA-MB-231): 1.79 µM | inhibition at 10 µM (MDA-MB-231/ATCC; Homo sapiens, MDA-MB-231, read-out: growth inhibition % (GI%)): 69.6% | CC50 (MDA-MB-231/ATCC; Homo sapiens, MDA-MB-231/ATCC, 5 doses, read-out: LC50 (the source's name)): 8.51 µM | TGI (MDA-MB-231/ATCC; MDA-MB-231/ATCC, 5 doses): 3.9 µM | IC50 (EGFR): 0.069 ± 0.004 µM | increase in total apoptosis compared to the control (HS 578T cells [1]): 16.74 fold | Apoptosis Early (HS 578T cells [1]; IC50 concentration, 24 h): 19.24% | Apoptosis Late (HS 578T cells [1]; IC50 concentration, 24 h): 13.45% | Apoptosis Total (HS 578T cells [1]; IC50 concentration, 24 h): 39.02% | Necrosis (HS 578T cells [1]; IC50 concentration, 24 h): 6.33% | increase of caspase-3 level compared to negative control (caspase-3): 10.75 fold | phase of cell cycle arrest (HS 578T cells [2]): G1/S phase | increase of cell population in the pre-G1 phase (HS 578T cells [2]; 24 h at 2.17 µM, vs control): 16.74 fold | decrease in the cell population at the G2/M phase (HS 578T cells [2]; [3]): 52% | increase of proportion of cells in G0-G1 phase (HS 578T cells [2]; [3]): 1.12 fold | increase of proportion of cells in S phase (HS 578T cells [2]; [3]): 1.12 fold | GI50 (MDA-MB-468; Homo sapiens, MDA-MB-468): 2.08 µM | CC50 (MDA-MB-468; Homo sapiens, MDA-MB-468, read-out: LC50): 18.8 µM | inhibition at 10 µM (MDA-MB-468; Homo sapiens, MDA-MB-468, read-out: growth inhibition % (GI%)): > 100% | TGI (MDA-MB-468; MDA-MB-468, 5 doses): 5.08 µM
